According to patent US7745647B2, “Diterpenes from the fruiting body of Antrodia camphorata and pharmaceutical compositions thereof” (Kang Jian Biotech Corp, Ltd., priority 2006, dated 2010):

Test system: primary cultures of neonatal cortical neurons exposed to 5 μM Aβ25-35
Assay: Protection of cortical neurons against Aβ25-35-induced cell death (MTT reduction analysis)
Assay type: cell-based, rat
Settings: for protected neurons from Aβ damage by: 5 μM Aβ; for cell death (%): then 5 μM Aβ25-35 for 40 h, MTT, mean ± S.D., three experiments
Experimental: In this study, primary cultures of neonatal cortical neurons from the cerebral cortex of Harlan Sprague-Dawley rat pups at postnatal day were used as target cells. Primary cultures of neonatal cortical neurons were prepared from the cerebral cortex of Harlan Sprague-Dawley rat pups at postnatal day 1. Briefly, each pup was decapitated and the cortex was digested in 0.5 mg/mL papain at 37° C. for 15 min. The tissue was dissociated in Hibernate A medium (containing B27 supplement) by aspirating trituration to separate cells. Cells were plated (at the density of 5×10^4 cells/cm^2) onto poly-D-lysine-coated dishes and maintained in Neurobasal medium containing B27 supplement, 10 units/mL penicillin, […], and 0.5 mg/mL glutamine (5% CO2/9% O2) for 3 days. Cells were then exposed to cytosine-β-D-arabinofuranoside (5 μM) for 1 day to inhibit proliferation of non-neuronal cells. The cells were used for the experiment on the fifth day.
The effects of isolated pure compounds on Aβ25-35-treated cell apoptosis were determined by a MTT method for evaluating neuroprotective activity. The mitochondrial dehydrogenase activity was assayed by reduction cleavage of the tetrazolium salt MTT (3-[4,5-dimethylthiazol-2-yl]-2,5-diphenyltetrazolium bromide), to yield a purple dye with absorbance read at about 570 nm. Results are expressed as percentage of control absorbance. Cortical neurons prepared as described above were incubated with vehicle (0.1% DMSO) or various concentrations of the compounds for 2 h then exposed to 5 μM Aβ for 40 h. The cell viability was assessed by MTT reduction analysis. Cells were incubated with minimum essential medium containing 0.5 mg/mL MTT for 1 h. The medium was aspirated, and the formazan particle was dissolved with DMSO. The absorbance at 600 nm was measured using an enzyme-linked immunosorbent assay reader. Results are expressed as means±S.D. and were analyzed by ANOVA with post hoc multiple comparison with a Bonferroni test.

C=C1CC[C@@H]2[C@](C)(CC[C@H](O)[C@]2(C)CO)[C@H]1/C=C/[C@@H]1CCOC1=O [Compound 2, 3β,19-dihydroxylabda-8(17), 11E-dien-16,15-olide]
protected neurons from Aβ damage by (at concentration of 10 μM): 29.5% | cell death (%) (compound 1 μM for 2 h): 43.8 ± 9.5% | cell death (%) (compound 5 μM for 2 h): 34.9 ± 2.6% | cell death (%) (compound 10 μM for 2 h): 29.5 ± 6.4 % | cell death (%) (compound 20 μM for 2 h): 26.3 ± 9.4 %

C=C1CCC2[C@@](C)(CO)CCC[C@]2(C)[C@H]1CCC1CCOC1=O (some centres unmarked) [Compound 1, 19-hydroxylabda-8(17)-en-16,15-olide]
protected neurons from Aβ damage by (at concentration of 5 μM): 25.3% | cell death (%) (compound 1 μM for 2 h): 34.4 ± 3.4% | cell death (%) (compound 5 μM for 2 h): 25.3 ± 5.7 % | cell death (%) (compound 10 μM for 2 h): 28.1 ± 5.7 % | cell death (%) (compound 20 μM for 2 h): 30.8 ± 5.0 %

C=C1CC[C@H]2[C@@](C)(CO)CCC[C@]2(C)[C@H]1CCC1=CCOC1=O [Compound 4, 19-hydroxylabda-8(17),13-dien-16,15-olide]
protected neurons from Aβ damage by (at concentration of 10 μM): 28.9% | cell death (%) (compound 1 μM for 2 h): 41.2 ± 3.4% | cell death (%) (compound 5 μM for 2 h): 34.8 ± 3.2% | cell death (%) (compound 10 μM for 2 h): 28.9 ± 8.1 % | cell death (%) (compound 20 μM for 2 h): 32.6 ± 7.2 %

C=C1CCC2C(C)(CO)C(O)CCC2(C)C1C=CC1=CCOC1=O (centres unmarked) [Compound 5, 14-deoxy-11,12-didehydroandrographolide]
protected neurons from Aβ damage by (at concentration of 20 μM): 29.5% | cell death (%) (compound 1 μM for 2 h): 40.7 ± 3.3% | cell death (%) (compound 5 μM for 2 h): 35.7 ± 1.9% | cell death (%) (compound 10 μM for 2 h): 30.8 ± 5.7 % | cell death (%) (compound 20 μM for 2 h): 29.5 ± 5.0 %

Ac-DEVD-CHO [reference compound]
cell death (%) (compound 1 μM for 2 h): 35.8 ± 3.5% | cell death (%) (compound 5 μM for 2 h): 30.2 ± 5.5 % | cell death (%) (compound 10 μM for 2 h): 24.5 ± 4.6 % | cell death (%) (compound 20 μM for 2 h): 23.1 ± 1.6 %

C=C1CC[C@@H]2[C@](C)(CC[C@H](O)[C@]2(C)CO)[C@H]1/C=C/C1CCOC1=O (stereo partly drawn) [Compound 3, 13-epi-3β,19-dihydroxylabda-8(17), 11E-dien-16,15-olide]
protected neurons from Aβ damage by (at concentration of 10 μM): 36.7% | cell death (%) (compound 1 μM for 2 h): 45.1 ± 3.5% | cell death (%) (compound 5 μM for 2 h): 39.6 ± 3.4% | cell death (%) (compound 10 μM for 2 h): 36.7 ± 8.7% | cell death (%) (compound 20 μM for 2 h): 29.3 ± 10.6 %
